Common to all, as to assay type: biochemical
The target in one assay is T1, DYRK1B (Homo sapiens, UniProt Q9Y463).
T1 construct: purchased Carna Biosciences, Inc. 04-131
The assay can be described thus: Inhibition test on activity of DYRK family, mobility shift assay (MSA): DYRK1B. Particulars: MSA, FITC-labeled DYRKtide peptide, ATP 200 μM; read-out: Inhibitory activity DYRK 1B (IC50 class). How it is done:
[Inhibition Test on Activity of DYRK Family (DYRK1A, DYRK1B, DYRK2, and DYRK3)]
The kinase activity was measured by mobility shift assay (MSA) method using QuickScout Screening Assist™ MSA (commercially available kit manufactured by Carna Biosciences, Inc.). The substrate of the kinase reaction used was an FITC-labeled DYRKtide peptide included in the kit. An assay buffer [20 mM HEPES, 0.01% Triton X-100™, 2 mM dithiothreitol, pH 7.5]was used to create a substrate mixture solution with a substrate (4 μM), MgCl2(20 mM), and ATP (DYRK1A: 100 μM; DYRK1B: 200 μM; DYRK2: 40 μM; and DYRK3: 20 μM). In addition, kinases (DYRK1A: manufactured by Carna Biosciences, Inc., Cat. No. 04-130; DYRK1B: manufactured by Carna Biosciences, Inc., Cat. No. 04-131; DYRK2; manufactured by Carna Biosciences, Inc., Cat. No. 04-132; and DYRK3; manufactured by Carna Biosciences, Inc., Cat. No. 04-133) were diluted with the assay buffer to prepare enzyme solutions (DYRK1A: 0.2 ng/μL; DYRK1B: 0.08 ng/μL; DYRK2: 0.04 ng/μL; and DYRK3: 0.25 ng/μL). The 10 mM solution of the test compound in DMSO was further diluted with DMSO to 10 levels of the concentration (0.00003 mM, 0.0001 mM, 0.0003 mM, 0.001 mM, 0.003 mM, 0.01 mM, 0.03 mM, 0.1 mM, 0.3 mM, and 1 mM), each of which was subjected to 25-fold dilution with the assay buffer to obtain a drug solution (4% DMSO solution). 5 μL of the drug solution or a control solution (4% DMSO-assay buffer), 5 μL of the substrate mixture solution, and 10 μL of the enzyme solution were mixed in the wells of a polypropylene 384-well plate and allowed to react at room temperature for 1 hour, and then the reaction was quenched by adding 60 μL of the termination buffer included in the kit. Subsequently, the quantities of the substrates (S) and the phosphorylated substrate (P) in the reaction solution were measured using LabChip EZ Reader II system (manufactured by Caliper Life Sciences) according to the protocol of the assay kit.
The heights of the peaks of the “substrate” and the “phosphorylated substrate” were expressed as S and P, respectively, and a blank containing the assay buffer instead of the enzyme solution was also measured.
The inhibition rate (%) of the test compound was calculated according to the following equation:
Inhibition rate (%)=(1−(C−A)/(B−A))×100 • wherein, A, B, and C represent P/(P+S) of the blank well, P/(P+S) of the control solution well, and P/(P+S) of the compound-containing well, respectively.
The IC50 value was calculated via a regression analysis of the inhibition rate and the test compound concentration (logarithmic value).
The inhibiting activities of representative compounds of the present invention are shown against DYRK1A, DYRK1B, DYRK2, and DYRK3 in Tables.

A further assay deals with T2, DYRK3 (Homo sapiens, UniProt O43781).
T2 construct: purchased Carna Biosciences, Inc. 04-133
T2 sequence (O43781 1-568 isoform O43781-2): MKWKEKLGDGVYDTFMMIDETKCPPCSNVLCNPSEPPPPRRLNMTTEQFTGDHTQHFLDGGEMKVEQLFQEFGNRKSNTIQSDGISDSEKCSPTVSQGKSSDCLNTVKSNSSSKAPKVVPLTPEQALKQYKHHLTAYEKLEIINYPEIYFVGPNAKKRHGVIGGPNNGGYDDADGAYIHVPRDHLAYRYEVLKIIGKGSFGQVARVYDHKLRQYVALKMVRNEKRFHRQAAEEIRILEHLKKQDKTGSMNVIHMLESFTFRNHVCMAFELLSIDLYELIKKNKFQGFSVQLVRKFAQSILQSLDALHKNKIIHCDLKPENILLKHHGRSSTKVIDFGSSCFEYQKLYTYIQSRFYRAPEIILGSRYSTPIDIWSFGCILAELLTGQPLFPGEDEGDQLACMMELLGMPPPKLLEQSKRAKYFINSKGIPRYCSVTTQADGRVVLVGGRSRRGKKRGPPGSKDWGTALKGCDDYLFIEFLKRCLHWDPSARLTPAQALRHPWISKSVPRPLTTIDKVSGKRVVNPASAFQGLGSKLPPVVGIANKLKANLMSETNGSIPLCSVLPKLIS
In words: Inhibition test on activity of DYRK family, mobility shift assay (MSA): DYRK3. The note with it: MSA, FITC-labeled DYRKtide peptide, ATP 20 μM; read-out: Inhibitory activity DYRK 3 (IC50 class). The procedure, abridged: (§1)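 Reactions ran 1 h at room temperature in HEPES buffer pH 7.5 with FITC-DYRKtide as substrate. ATP in the substrate mix was 100 µM for DYRK1A, 200 µM for DYRK1B, 40 µM for DYRK2 and 20 µM for DYRK3. Phosphorylated and unphosphorylated peptide were separated on a LabChip, and IC50 was regressed on log dose.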

A further assay addresses T3, DYRK2 (Homo sapiens, UniProt Q92630).
T3 construct: purchased Carna Biosciences, Inc. 04-132
T3 sequence (Q92630 74-601 limits assumed): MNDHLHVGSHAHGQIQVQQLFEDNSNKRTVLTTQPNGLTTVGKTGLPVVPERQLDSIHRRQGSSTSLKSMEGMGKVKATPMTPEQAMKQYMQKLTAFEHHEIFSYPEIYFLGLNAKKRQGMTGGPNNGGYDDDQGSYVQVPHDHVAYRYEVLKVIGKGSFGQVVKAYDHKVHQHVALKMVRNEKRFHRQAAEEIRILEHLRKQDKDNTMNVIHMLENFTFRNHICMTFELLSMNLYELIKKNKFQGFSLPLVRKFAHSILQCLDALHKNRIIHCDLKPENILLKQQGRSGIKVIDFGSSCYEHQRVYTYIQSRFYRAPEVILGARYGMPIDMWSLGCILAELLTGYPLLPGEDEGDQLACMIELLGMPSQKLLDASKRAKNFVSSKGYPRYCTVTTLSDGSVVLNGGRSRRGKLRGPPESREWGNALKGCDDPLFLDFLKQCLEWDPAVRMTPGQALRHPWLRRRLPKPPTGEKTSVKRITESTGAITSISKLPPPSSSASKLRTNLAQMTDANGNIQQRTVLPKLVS
In words: Inhibition test on activity of DYRK family, mobility shift assay (MSA): DYRK2. The note with it: MSA, FITC-labeled DYRKtide peptide, ATP 40 μM; read-out: Inhibitory activity DYRK 2 (IC50 class). The procedure, abridged: as §1

A further assay has as its target T4, DYRK1A (Homo sapiens, UniProt Q13627).
T4 construct: purchased Carna Biosciences, Inc. 04-130
In words: Inhibition test on activity of DYRK family, mobility shift assay (MSA): DYRK1A. Particulars: MSA, FITC-labeled DYRKtide peptide, ATP 100 μM; read-out: Inhibitory activity DYRK 1A (IC50 class). The procedure, abridged: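 IC50 derived by regressing inhibition rate on log compound concentration, using P/(P+S) peak ratios from electrophoretic separation. DYRK1A enzyme solution 0.2 ng/μL, substrate mix with 4 μM FITC-DYRKtide and 100 μM ATP, pH 7.5 HEPES; reaction run 1 h at room temperature.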

Structures are written as SMILES.

In general, IC50 refers to the concentration that gives 50% inhibition.

T1 sequence (Q9Y463 whole entry): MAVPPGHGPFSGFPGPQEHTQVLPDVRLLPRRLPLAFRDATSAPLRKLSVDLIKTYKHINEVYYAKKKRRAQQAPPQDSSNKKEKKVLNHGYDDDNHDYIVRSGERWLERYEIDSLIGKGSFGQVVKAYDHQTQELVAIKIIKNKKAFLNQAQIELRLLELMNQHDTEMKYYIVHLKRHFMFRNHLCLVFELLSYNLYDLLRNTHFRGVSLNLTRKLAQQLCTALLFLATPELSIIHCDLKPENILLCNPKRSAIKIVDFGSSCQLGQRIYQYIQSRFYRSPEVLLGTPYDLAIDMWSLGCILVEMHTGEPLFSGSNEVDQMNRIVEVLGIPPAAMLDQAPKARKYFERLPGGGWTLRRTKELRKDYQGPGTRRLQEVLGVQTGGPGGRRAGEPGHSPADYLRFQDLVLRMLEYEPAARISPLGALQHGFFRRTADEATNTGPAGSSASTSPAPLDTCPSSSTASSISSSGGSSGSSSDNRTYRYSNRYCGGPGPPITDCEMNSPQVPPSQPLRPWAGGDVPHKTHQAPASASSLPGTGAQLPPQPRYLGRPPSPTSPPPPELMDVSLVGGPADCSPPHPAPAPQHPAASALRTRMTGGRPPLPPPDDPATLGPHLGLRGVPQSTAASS

In the case of `O=C1N[C@H]2CO[C@H](CF)[C@H]2N1c1nc2c3c(ccc2s1)OCC3` [Example 159, (3aR,6S,6aS)-1-(7,8-dihydrofuro[3,2-e][1,3]benzothiazol-2-yl)-6-(fluoromethyl)tetrahydro-1H-furo[3,4-d]imidazol-2(3H)-one], the IC50 was 10 to 100 nM at DYRK1B, 10 to 100 nM at DYRK3, 10 to 100 nM on DYRK2 and below 10 nM at DYRK1A.
On to `C[C@@H]1C[C@@H]2[C@H](CO1)NC(=O)N2c1nc2c3c(ccc2s1)OCC3` [Example 160], for which the IC50 on DYRK1B was 100 to 1000 nM; on DYRK3 it was at least 1000 nM; at DYRK2, at least 1000 nM; on DYRK1A it was 100 to 1000 nM.
On to `C[C@H]1OC[C@@H]2NC(=O)N(c3nc4c5c(ccc4s3)OCC5)[C@@H]21` [Example 161, (3aR,6R,6aS)-1-(7,8-Dihydrofuro[3,2-e][1,3]benzothiazol-2-yl)-6-methyltetrahydro-1H-furo[3,4-d]imidazol-2(3H)-one], for which the IC50 was 10 to 100 nM at DYRK1B, 100 to 1000 nM at DYRK3, 10 to 100 nM at DYRK2 and 10 to 100 nM at DYRK1A.

(Values after patent US20230365589A1, “NOVEL AMINE DERIVATIVES” (Sumitomo Pharma Co., Ltd., priority 2020, published 2023).)
